Results from PubChem BioAssay AID328 (DTP/NCI, 2004).
Where “and” joins values, the source holds several entries; their conditions need not be identical. Equal values may be shown once. Toxic doses and inconclusive results are not listed.

System: BDF1 mice, P388 leukemia ip, median survival T/C
Test: NCI In Vivo Anticancer Drug Screen. Data for tumor model P388 Leukemia (intraperitoneal) in B6D2F1 (BDF1) mice
Conditions: endpoint: median survival time, higher = longer survival
Method in brief: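 Survival ratio, drug arm over vehicle arm, in mice with a transplanted tumour.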

[1] = dose: 50.0 mg/kg/injection, schedule: Q01DX009 (ip), vehicle: saline
[2] = dose: 100.0 mg/kg/injection, schedule: Q01DX009 (ip), vehicle: saline
[3] = dose: 100.0 mg/kg/injection, schedule: Q01DX009 (ip), vehicle: Klucel (hydroxypropylcellulose) (HPC)
[4] = dose: 100.0 mg/kg/injection, schedule: Q04DX003 (ip), vehicle: saline with Tween-80
[5] = dose: 200.0 mg/kg/injection, schedule: Q04DX003 (ip), vehicle: saline with Tween-80
[6] = dose: 400.0 mg/kg/injection, schedule: Q04DX003 (ip), vehicle: saline with Tween-80

## CCN1CCC(O)(c2ccc(Br)cc2)C1 (configuration not stated)
[1]
  T/C: 106 % of control
[2]
  T/C: 97 % of control

## CCCCCCC(N)C(C)=O (configuration not stated)
[1]
  T/C: 93 % of control
[2]
  T/C: 95 % of control

## C1CC[N-]CC1.C1CC[N-]CC1.[I][Pt+2][I]
dose: 50.0 mg/kg/injection, schedule: Q01DX009 (ip), vehicle: Klucel (hydroxypropylcellulose) (HPC)
  T/C: 93 % of control
[3]
  T/C: 93 % of control

## COc1cc2c(c3c1c(=O)c1ccccc1n3C)C=CC(C)(C)O2
dose: 12.5 mg/kg/injection, schedule: Q01DX010 (ip), vehicle: saline
  T/C: 100 % of control
dose: 25.0 mg/kg/injection, schedule: Q01DX010 (ip), vehicle: saline
  T/C: 90 % of control
dose: 50.0 mg/kg/injection, schedule: Q01DX010 (ip), vehicle: saline
  T/C: 90 % of control
dose: 100.0 mg/kg/injection, schedule: Q01DX010 (ip), vehicle: saline
  T/C: 90 % of control

## Cc1ccc(NC(=O)COc2ccc(Cl)cc2Cl)cc1Cl
[4]
  T/C: 100 % of control
[5]
  T/C: 90 % of control
[6]
  T/C: 90 % of control

## CSc1ncnc2c1ncn2CO
dose: 30.0 mg/kg/injection, schedule: Q01DX009 (ip), vehicle: Klucel (hydroxypropylcellulose) (HPC)
  T/C: 110 % of control
dose: 30.0 mg/kg/injection, schedule: Q01DX009 (ip), vehicle: saline
  T/C: 108 % of control
[3]
  T/C: 150 % of control
dose: 100.0 mg/kg/injection, schedule: Q01DX009 (ip), vehicle: saline with Tween-80
  T/C: 154 % of control
dose: 120.0 mg/kg/injection, schedule: Q01DX009 (ip), vehicle: Klucel (hydroxypropylcellulose) (HPC)
  T/C: 150 % of control
dose: 150.0 mg/kg/injection, schedule: Q01DX009 (ip), vehicle: Klucel (hydroxypropylcellulose) (HPC)
  T/C: 90 % of control
[6]
  T/C: 95 % of control

## CCN(CC)CC(C)Nc1ccc([N+](=O)[O-])c2sc3ccccc3c(=O)c12 (configuration not stated)
[4]
  T/C: 200 % of control
dose: 132.0 mg/kg/injection, schedule: Q04DX003 (ip), vehicle: saline with Tween-80
  T/C: 209 % of control and 222 % of control
[5]
  T/C: 272 % of control and 300 % of control and 195 % of control
dose: 300.0 mg/kg/injection, schedule: Q04DX003 (ip), vehicle: saline with Tween-80
  T/C: 109 % of control and 118 % of control
[6]
  T/C: 115 % of control

## CC(C)=CC(=O)OCC1CC[N+](C)([O-])C1 (configuration not stated)
[2]
  T/C: 100 % of control
dose: 200.0 mg/kg/injection, schedule: Q01DX001 (ip), vehicle: saline
  T/C: 95 % of control
dose: 200.0 mg/kg/injection, schedule: Q01DX009 (ip), vehicle: saline
  T/C: 91 % of control
dose: 400.0 mg/kg/injection, schedule: Q01DX009 (ip), vehicle: saline
  T/C: 103 % of control
dose: 800.0 mg/kg/injection, schedule: Q01DX001 (ip), vehicle: saline
  T/C: 91 % of control
dose: 800.0 mg/kg/injection, schedule: Q01DX009 (ip), vehicle: saline
  T/C: 103 % of control

## O=C(/C=C/c1cccc2ccccc12)c1ccc(Cl)cc1
[3]
  T/C: 109 % of control
dose: 100.0 mg/kg/injection, schedule: Q04DX003 (ip), vehicle: Klucel (hydroxypropylcellulose) (HPC)
  T/C: 104 % of control
dose: 200.0 mg/kg/injection, schedule: Q01DX009 (ip), vehicle: Klucel (hydroxypropylcellulose) (HPC)
  T/C: 95 % of control
dose: 200.0 mg/kg/injection, schedule: Q04DX003 (ip), vehicle: Klucel (hydroxypropylcellulose) (HPC)
  T/C: 104 % of control
dose: 400.0 mg/kg/injection, schedule: Q04DX003 (ip), vehicle: Klucel (hydroxypropylcellulose) (HPC)
  T/C: 95 % of control

## CCc1nc2ccccc2c(=O)n1C
dose: 50.0 mg/kg/injection, schedule: Q01DX009 (ip), vehicle: saline with Tween-80
  T/C: 101 % of control
dose: 200.0 mg/kg/injection, schedule: Q01DX009 (ip), vehicle: saline with Tween-80
  T/C: 101 % of control

## CC1=CC(=O)C=CC1(C)C(Cl)Cl (configuration not stated)
[4]
  T/C: 90 % of control
[5]
  T/C: 105 % of control
[6]
  T/C: 100 % of control

## C1CCNCC1.COc1ccccc1C(=O)[CH-]C(=O)C(F)(F)F.COc1ccccc1C(=O)[CH-]C(=O)C(F)(F)F.COc1ccccc1C(=O)[CH-]C(=O)C(F)(F)F.COc1ccccc1C(=O)[CH-]C(=O)C(F)(F)F.[Eu+3]
[1]
  T/C: 88 % of control
[2]
  T/C: 119 % of control

## O=c1cc(CCl)[nH]nc1CCl
dose: 14.5 mg/kg/injection, schedule: Q04DX003 (ip), vehicle: saline with Tween-80
  T/C: 166 % of control
dose: 22.0 mg/kg/injection, schedule: Q04DX003 (ip), vehicle: saline with Tween-80
  T/C: 159 % of control
dose: 33.0 mg/kg/injection, schedule: Q04DX003 (ip), vehicle: saline with Tween-80
  T/C: 151 % of control
dose: 75.0 mg/kg/injection, schedule: Q04DX003 (ip), vehicle: saline with Tween-80
  T/C: 98 % of control
